Test results taken from patent US20230119002A1, “COMPOSITIONS AND METHODS CONTAINING REDUCED NICOTINAMIDE RIBOSIDE FOR PREVENTION AND TREATMENT OF CARDIOVASCULAR DISEASES AND CONDITIONS” (SOCIETE DES PRODUITS NESTLE S.A., priority 2020, published 2023).
Structures can show the parent of a compound that is named as a salt.

Key:
[1] = Tissue NAD+ and circulating metabolites after IP injection in mice; assay type: in vivo; details: for NAD+ levels in liver, muscle and kidney: after 1 h
Description: (§1) Levels of NRH and other NAD-related metabolites in biological samples were obtained by using a cold liquid-liquid extraction using a mixture of methanol:water:chloroform in 5:3:5 (v/v), from which the polar phase was recovered for hydrophilic interaction ultra-high performance liquid chromatography mass spectrometry (UHPLC-MS) analysis. The UHPLC consisted of a binary pump, a cooled autosampler, and a column oven (DIONEX Ultimate 3000 UHPLC+ Focused, Thermo Scientific), connected to a triple quadrupole spectrometer (TSQ Vantage, Thermo Scientific) equipped with a heated electrospray ionisation (H-ESI) source. Of each sample, 2 μL were injected into the analytical column (2.1 mm×150 mm, 5 μm pore size, 200 Å HILICON iHILIC®-Fusion(P)), guarded by a pre-column (2.1 mm×20 mm, 200 Å HILICON iHILIC®-Fusion(P) Guard Kit) operating at 35° C. The mobile phase (10 mM ammonium acetate at pH 9, A, and acetonitrile, B) was pumped at 0.25 mL/min flow rate over a linear gradient of decreasing organic solvent (0.5-16 min, 90-25% B), followed by re-equilibration for a total run time of 30 min. The MS operated in positive mode at 3500 V with multiple reaction monitoring (MRM). The software Xcalibur v4.1.31.9 (Thermo Scientific) was used for instrument control, data acquisition and processing. Retention time and mass detection was confirmed by authentic standards.
The above results prompted us to test whether NRH could act as an effective NAD+ precursor in vivo. For this, we first intraperitoneally (IP) injected mice with either NR or NRH (500 mg/kg). […] Importantly, NRH was detectable in circulation after IP injection.

[2] = assay type: in vivo, mice
Experimental: 8 week-old C57BI/6NTac mice were orally gavaged with either saline (as vehicle), NR (500 mg/kg) or NRH (500 mg/kg). After 1 hour, liver, skeletal muscle and kidney NAD^+ levels were evaluated. All results are expressed as mean+/−SEM of n=5 mice per group. * indicates statistical difference at p<0.05 vs. vs. saline-treated mice. # indicates statistical difference at p<0.05 vs. NR treated mice.
as §1
Oral administration of NRH led to very similar results to those observed after IP administration. […] NRH was detectable in plasma 1 h after oral administration. In contrast, NR levels were undetectable at 1 h after NR administration.

NRK1 = test: NAD+ levels in primary hepatocytes from control or NRK1 knockout mice; details: 1 hour of treatment, NRK1 knockout mouse hepatocytes
[3] = Stability in FBS supplemented media; assay type: in vitro ADME
Experimental: (§2) NR degradation to NAM has been proposed as a limitation for its pharmacological efficacy. To evaluate whether NRH was also susceptible to degradation to NAM, we spiked NRH or NR in isolated mouse plasma. […] We also tested the stability of NRH in other matrixes. […] Finally, we also certified NRH stability in water (pH=7, at room temperature) for 48 h.

[4] = Stability in isolated mouse plasma; assay type: in vitro ADME
Description: as §1, §2

AML12 hepatocytes = test: Intracellular NAD+ levels in AML12 hepatocytes after NRH or NR treatment; assay type: cell-based
Description: as §1
Even at such relatively low dose, NRH achieved similar increases in intracellular NAD+ levels to those reached with NR at 50-fold higher concentrations.
NRH actions were also extremely fast (FIG. 3), as significant increases in NAD+ levels were observed within 5 minutes after NRH treatment.

zebrafish larvae = test: Ethanol-induced cardiac edema in zebrafish larvae; assay type: in vivo; details: 2% Ethanol during 20 h, NRH 500 uM co-treatment, 3 days post fertilization
Experimental: Phenotypic scoring of cardiac edema severity in zebrafish larvae at 3 days post fertilization exposed to 2% Ethanol during 20 h with or without NRH (500 uM) co-treatment (untreated, n=60; Ethanol, n=73; Ethanol +NRH, n=72). Statistics represented were calculated by non-parametric Chi-square test without p-value adjustment. **** p-Value<0.0001, * p-Value=0.0275.
Phenotypic scoring of cardiac edema severity in zebrafish larvae at 3 days post fertilization exposed to 2% Ethanol during 20 h with or without NRH (500 uM) co-treatment (untreated, n=60; Ethanol, n=73; Ethanol+NRH, n=72). This indicates NRH protects against ethanol-induced cardiac edema in Zebrafish.

NAMPT = target: T1, NAMPT (Mus musculus, UniProt Q99KQ4); test: NRH-induced NAD+ synthesis with NAMPT inhibitor FK866; assay type: cell-based
T1 construct: endogenous in cells; AML12 inferred
T1 sequence (Q99KQ4 whole entry): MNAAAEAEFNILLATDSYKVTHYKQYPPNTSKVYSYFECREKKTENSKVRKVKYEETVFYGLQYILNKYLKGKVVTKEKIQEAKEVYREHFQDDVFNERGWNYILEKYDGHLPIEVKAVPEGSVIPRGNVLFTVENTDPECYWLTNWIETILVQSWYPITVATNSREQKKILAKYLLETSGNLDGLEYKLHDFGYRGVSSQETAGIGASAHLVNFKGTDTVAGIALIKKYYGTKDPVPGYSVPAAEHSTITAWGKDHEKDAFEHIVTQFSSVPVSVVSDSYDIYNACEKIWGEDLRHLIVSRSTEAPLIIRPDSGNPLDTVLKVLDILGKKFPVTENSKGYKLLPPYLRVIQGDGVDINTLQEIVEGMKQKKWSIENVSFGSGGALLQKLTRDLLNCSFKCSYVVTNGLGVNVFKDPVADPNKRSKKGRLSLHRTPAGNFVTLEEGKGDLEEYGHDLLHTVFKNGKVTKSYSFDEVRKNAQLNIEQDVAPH

H9C2 cardiomyocytes = test: Oxidative stress-induced cardiomyocyte cell death; assay type: cell-based; details: H2O2 0.25 mM or 0.5 mM for 24 hours, NRH 0.1 mM
Experimental: H9C2 cardiomyocytes were differentiated for 6 days and then were treated with hydrogen peroxide (H2O2; at either 0.25 mM or 0.5 mM) for 24 hrs in the presence or absence of NRH (0.1 mM). PBS was used as vehicle for NRH. After 24 hrs, cell viability was evaluated by lumiscence using a commercial kit (Cell Title-Glow; Promega). All results are expressed as meand+/−SEM of n=6 experiments. * indicates P<0.05 vs. the respective vehicle treated group.
H9C2 cardiomyocytes were differentiated for 6 days and then were treated with hydrogen peroxide (H2O2; at either 0.25 mM or 0.5 mM) for 24 hours in the presence or absence of NRH (0.1 mM). PBS was used as vehicle for NRH. After 24 hours, cell viability was evaluated by lumiscence using a commercial kit (Cell Title-Glow; Promega).

3T3 fibroblasts = test: NAD+ levels in 3T3 fibroblasts after NRH treatment; assay type: cell-based
Experimental: (§3) The ability of NRH to potently increase NAD+ was tested as well in other cell type models.

[5] = test system: equilibrative nucleoside transporters (ENTs); test: NRH-induced NAD+ synthesis with ENT-mediated transport blocked by NBTI; assay type: cell-based; details: in the presence of NBTI (ENT blocker)
Description: In order to understand the exact path by which NRH synthesizes NAD+, we initially evaluated whether NRH, could be transported into the cell by equilibrative nucleoside transporters (ENTs).

C2C12 myotubes = test: NAD+ levels in C2C12 myotubes after NRH treatment; assay type: cell-based
Experimental: as §3

INS1-cells = test: NAD+ levels in INS1-cells after NRH treatment; assay type: cell-based
Experimental: as §3

NMNAT = test: NRH-induced NAD+ synthesis with NMNAT inhibitor gallotannin; assay type: cell-based
Description: As a follow-up step, NMNAT enzymes could catalyze the transition from NMNH to NADH. […] Yet, part of the NRH action remained after gallotannin treatment when NRH was used at maximal doses.

zebrafish embryos = test: Doxorubicin-induced toxicity in zebrafish larvae; assay type: in vivo; details: Doxorubicin 25 uM with NRH 500 uM, up to 60 h
Experimental: 1 day post fertilization zebrafish embryos were placed in 24 well plates and treated with Doxorubicin (25 uM), either alone or in combination with NRH (500 uM). Untreated group was exposed to DMSO (0.05%). Health of the larvae was monitored frequently, and dead larvae were scored overtime, up to 60 h treatment. Results are expressed as percent of survival of n=60 embryos per group. Statistics represented were calculated by pairwise comparison using log-rank test and p-value adjustment was performed by Bonferroni correction. p-Value for median survival of untreated vs Doxorubicin <0.0001, p-value Doxorubicin vs Doxorubicin+NRH <0.0001.
Doxorubicin is a chemotherapeutic agent that is well established to be cardiotoxic. This drug has also been described to induce cardiomyopathy in zebrafish larvae. 1 day post fertilization zebrafish embryos were placed in 24 well plates and treated with Doxorubicin (25 uM), either alone or in combination with NRH (500 uM). Untreated group was exposed to DMSO (0.05%). Health of the larvae was monitored frequently, and dead larvae were scored overtime, up to 60 h treatment. Results are expressed as percent of survival of n=60 embryos per group.

adenosine kinase (AK) = target: T2, adenosine kinase (AK) (Mus musculus, UniProt P55264); test: NRH-induced NAD+ synthesis with adenosine kinase inhibitors; assay type: cell-based
T2 construct: endogenous in cells; host or cells: AML12 cells
T2 sequence (P55264 whole entry): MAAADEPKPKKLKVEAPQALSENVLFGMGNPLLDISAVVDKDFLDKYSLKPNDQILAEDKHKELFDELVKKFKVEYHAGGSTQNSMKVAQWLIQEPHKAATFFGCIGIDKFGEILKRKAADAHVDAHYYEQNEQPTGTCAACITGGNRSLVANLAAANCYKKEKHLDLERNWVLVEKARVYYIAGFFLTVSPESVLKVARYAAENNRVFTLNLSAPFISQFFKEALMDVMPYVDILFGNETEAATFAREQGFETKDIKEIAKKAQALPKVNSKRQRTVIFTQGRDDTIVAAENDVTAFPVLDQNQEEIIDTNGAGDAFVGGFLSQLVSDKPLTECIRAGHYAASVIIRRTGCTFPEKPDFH
Experimental: AML12 cells were treated with an adenosine kinase inhibitor (5-IT; […]) for 1 hour prior to NRH treatment at the doses indicated. Then, 1 hour later, acidic extracts were obtained to measure NAD^+ levels. All values in the figure are expressed as mean+/−SEM of 3 independent experiments. * indicates statistical difference at p<0.05 vs. the respective vehicle treated group.
Considering the molecular structure of NRH, we reasoned that an alternative nucleoside kinase could be responsible for the phosphorylation of NRH. Confirming this expectation, the adenosine kinase (AK) inhibitor 5-iodotubercidin (5-IT) fully ablated the action of NRH. The role of AK in NRH-mediated NAD+ synthesis was confirmed using a second, structurally different, AK inhibitor, ABT-702. Metabolomic analyses further confirmed that upon inhibition of AK, the generation of NMNH, NADH and NAD+ was fully blunted, even if NRH was effectively entering the cell.

NC(=O)c1ccc[n+]([C@@H]2O[C@H](CO)[C@@H](O)[C@H]2O)c1 [NR, 1-b-D-ribofuranosyl-3-pyridinecarboxamide salt, reference compound]
NAM levels in circulation ([1]; mice, IP 500 mg/kg): highly increased
NAD+ levels in liver, muscle and kidney ([1]; mice, IP 500 mg/kg): increased
circulating NAM after NR relative to after NRH treatment ([2]; C57BI/6NTac, mouse, in vivo, po, 1 h): ~4 fold
administered compound in plasma ([2]; mouse, in vivo, po): undetectable
circulating NAM ([2]; mouse, in vivo, po): large increases
NAD+ levels in NRK1KO derived primary hepatocytes (NRK1): failed to increase NAD+ levels
degradation to NAM in FBS supplemented media [3]: occurs
compound levels in isolated mouse plasma ([4]; spiked, 2 h of incubation): decayed
generation of NAM in isolated mouse plasma ([4]; spiked, 2 h of incubation): increase in NAM

NC(=O)C1=CN([C@@H]2O[C@H](CO)[C@@H](O)[C@H]2O)C=CC1 [NRH]
NAD+ levels in liver, muscle and kidney ([1]; mice, IP 500 mg/kg): increased
NAM levels in circulation ([1]; mouse, in vivo, ip, 500 mg/kg): only a very mild increase
NR in circulation after NRH treatment versus after NR injection ([1]; mouse, in vivo, ip, 500 mg/kg): much higher levels
NRH in circulation ([1]; mouse, in vivo, ip, 500 mg/kg): detectable
effect on hepatic NAD+ levels ([2]; mice, oral administration, compared with NR): more potent effect
NRH concentration in plasma ([2]; mouse, in vivo, po): 11.16 ± 1.74 µM
administered compound in plasma ([2]; mouse, in vivo, po): detectable
intracellular NRH and NMNH (AML12 hepatocytes; 5 minutes after treatment): could be detected
concentration of maximal effects on NAD+ synthesis (AML12 hepatocytes; AML12 hepatocytes): around the millimolar range
time to significant increase in NAD+ levels after treatment (AML12 hepatocytes; AML12 hepatocytes (FIG. 3)): ≤ 5 min
NR concentration needed for similar increase in intracellular NAD+, relative to NRH (AML12 hepatocytes; AML12 hepatocytes, NRH at 10 μM): 50 fold
increase of intracellular NAD+ levels at maximal effect (AML12 hepatocytes; AML12 hepatocytes, around the millimolar range): more than 10 fold
ability to increase intracellular NAD+ (AML12 hepatocytes; AML12 hepatocytes, compared with NR): superior to that of NR
concentration at which NAD+ levels were significantly increased (AML12 hepatocytes; AML12 hepatocytes, dose-response (FIG. 2)): 10 µM
increase in intracellular NR and NMN (AML12 hepatocytes; after NRH treatment, compared with NR treatment): greater than that triggered by NR itself
cardiac edema severity (phenotypic scoring) (zebrafish larvae): protects
degradation to NAM in FBS supplemented media [3]: did not degrade to NAM
dependence of action on NAMPT (NAMPT): NAMPT-independent
cell viability under oxidative stress (H9C2 cardiomyocytes): protects
NAD+ levels (3T3 fibroblasts): highly elevated
capacity as extracellular NAD+ precursor [5]: largely lost its capacity
NAD+ levels (C2C12 myotubes): highly elevated
NAD+ levels (INS1-cells): highly elevated
NAD+ synthesis after NRH treatment with gallotannin (NMNAT; NMNAT inhibitor gallotannin, part of action remained at maximal doses (0.5 mM)): largely compromised
NRH action with gallotannin at submaximal doses (NMNAT; submaximal NRH doses): totally blocked
NR production on incubation in isolated plasma [4]: did not lead to NR production
survival under doxorubicin induced toxicity (zebrafish embryos): rescues
formation of NR and NMN after NRH treatment with 5-IT (adenosine kinase (AK); 5-IT treatment): prevented the formation of NR and NMN
action of NRH on NAD+ with 5-iodotubercidin (5-IT) (adenosine kinase (AK); AML12 cells, 5-IT 10 mM for 1 hour prior to NRH, NAD+ 1 hour later): fully ablated
generation of NMNH, NADH and NAD+ upon inhibition of AK (adenosine kinase (AK); metabolomic analyses): fully blunted
role of AK in NRH-mediated NAD+ synthesis with ABT-702 (adenosine kinase (AK); second, structurally different AK inhibitor): confirmed
